Legend:
Assay type in all cases: in vivo
[1] = test system: field corn (Zea mays L., var. Dekalb 535, CORN); test: Post-emerge test, crop safety; details: post-emerge, 14 days after application, rating scale 0-100
Outline: (§1)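 Plants grown in 10 cm pots of sandy loam mix received acetone-dissolved compounds through a moving flat-fan nozzle. Doses ranged from 15 to 1000 g ai/ha. Pre-emerge pots were seeded one day earlier, post-emerge pots 8–21 days earlier. Fourteen days on, each pot was graded 0–100 for damage.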

[2] = test system: upland rice (Oryza sp., var. Tebonnet, RICE); test: Post-emerge test, crop safety; details: post-emerge, 14 days after application, rating scale 0-100
Outline: as §1

[3] = test system: green foxtail (Setaria viridis, SETVI); test: Pre-emerge test, greenhouse herbicide activity screening; details: phytotoxicity rating 0-100, 14 days after application
Outline: (§2)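 Rating: 0–100 visual injury, 14 DAA. Application: acetone, 187 l/ha, 15–1000 g ai/ha, flat-fan track sprayer with nozzle 40–45 cm above soil or canopy. Post-emerge runs used 0.25% v/v surfactant on 2–3 leaf plants.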

[4] = test system: lambsquarters (Chenopodium album, CHEAL); test: as above; details: phytotoxicity rating 0-100, 14 days after application
Outline: as §2

[5] = test system: barnyardgrass (Echinochloa crus-galli, ECHCG); test: as above; details: phytotoxicity rating 0-100, 14 days after application
Outline: as §2

[6] = test system: large crabgrass (Digitaria sanguinalis, DIGSA); test: as above; details: phytotoxicity rating 0-100, 14 days after application
Outline: as §2

[7] = test system: ivyleaf morningglory (Ipomoea hederacea, IPOHE); test: as above; details: phytotoxicity rating 0-100, 14 days after application
Outline: as §2

[8] = test system: velvetleaf (Abutilon theophrasti, ABUTH); test: as above; details: phytotoxicity rating 0-100, 14 days after application
Outline: as §2

[9] = test system: sicklepod (Cassia obtusifolia, CASOB); test: as above; details: phytotoxicity rating 0-100, 14 days after application
Outline: as §2

[10] = test system: johnsongrass (Sorghum halepense, SORHA); test: as above; details: phytotoxicity rating 0-100, 14 days after application
Outline: as §2

[11] = test system: green foxtail (Setaria viridis, SETVI); test: Post-emerge test, greenhouse herbicide activity screening; details: post-emerge, 14 days after application, rating scale 0-100
Outline: (§3)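 Herbicidal damage is scored 0 (none) to 100 (complete plant death) two weeks after a simulated field spray. Rates span 15–1000 g ai/ha, delivered in acetone at 187 l/ha. For post-emergence treatments, plants have 2–3 leaves and the spray carries 0.25% v/v non-ionic surfactant.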

[12] = test system: redroot pigweed (Amaranthus retroflexus, AMARE); test: as above; details: post-emerge, 14 days after application, rating scale 0-100
Outline: as §3

[13] = test system: lambsquarters (Chenopodium album, CHEAL); test: as above; details: post-emerge, 14 days after application, rating scale 0-100
Outline: as §3

[14] = test system: barnyardgrass (Echinochloa crus-galli, ECHCG); test: as above; details: post-emerge, 14 days after application, rating scale 0-100
Outline: as §3

[15] = test system: large crabgrass (Digitaria sanguinalis, DIGSA); test: as above; details: post-emerge, 14 days after application, rating scale 0-100
Outline: as §3

[16] = test system: ivyleaf morningglory (Ipomoea hederacea, IPOHE); test: as above; details: post-emerge, 14 days after application, rating scale 0-100
Outline: as §3

[17] = test system: velvetleaf (Abutilon theophrasti, ABUTH); test: as above; details: post-emerge, 14 days after application, rating scale 0-100
Outline: as §3

[18] = test system: sicklepod (Cassia obtusifolia, CASOB); test: as above; details: post-emerge, 14 days after application, rating scale 0-100
Outline: as §3

[19] = test system: johnsongrass (Sorghum halepense, SORHA); test: as above; details: post-emerge, 14 days after application, rating scale 0-100
Outline: as §3

[20] = test system: field corn (Zea mays L., var. Dekalb 535, CORN); test: Pre-emerge test, crop safety; details: crop damage rating 0-100, 14 days after application
Outline: (§4)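 Compounds in acetone were track-sprayed at 187 l/ha, 15–1000 g ai/ha, onto sandy loam pots. Pre-emerge seeds were sown one day before spraying, with surface watering afterwards. Post-emerge plants were at the 2–3 leaf stage and sprayed with 0.25% v/v non-ionic surfactant. Injury was rated 0–100 at 14 days.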

[21] = test system: upland rice (Oryza sp., var. Tebonnet, RICE); test: Pre-emerge test, crop safety; details: crop damage rating 0-100, 14 days after application
Outline: as §4

[22] = test system: redroot pigweed (Amaranthus retroflexus, AMARE); test: Pre-emerge test, greenhouse herbicide activity screening; details: phytotoxicity rating 0-100, 14 days after application
Outline: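 Sandy loam pots; pre-emerge: sown 1 d pre-spray, surface-watered after, then bottom-watered. Post-emerge: sown 8–21 d before, 2–3 leaf stage, + 0.25% v/v NIS, bottom-watered. Acetone, 187 l/ha track spray, 15–1000 g ai/ha. 0–100 injury score, day 14.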

In the case of `CCOC(=O)COc1c(Cl)cc(F)c(-n2c(=O)cc(C(F)(F)F)n(C)c2=O)c1NC(=O)c1ccc2ccccc2c1` [2-189], the “CORN phytotoxicity rating (crop damage)” value ([1]; 40.5 g ai/ha) was 0, the “CORN phytotoxicity rating (crop damage)” value ([1]; 162 g ai/ha) was 5 and the “RICE phytotoxicity rating (crop damage)” value ([2]; 40.5 g ai/ha) was 0. The “RICE phytotoxicity rating (crop damage)” value ([2]; 162 g ai/ha) was 5, the “Pre-emerge Herbicidal Activity SETVI” value ([3]; 40.5 g ai/ha) was 0 and the “Pre-emerge Herbicidal Activity SETVI” value ([3]; 162 g ai/ha) was 0. The “Pre-emerge Herbicidal Activity CHEAL” value ([4]; 40.5 g ai/ha) was 100, the “Pre-emerge Herbicidal Activity CHEAL” value ([4]; 162 g ai/ha) was 100 and the “Pre-emerge Herbicidal Activity ECHCG” value ([5]; 40.5 g ai/ha) was 0. The “Pre-emerge Herbicidal Activity ECHCG” value ([5]; 162 g ai/ha) was 0, the “Pre-emerge Herbicidal Activity DIGSA” value ([6]; 40.5 g ai/ha) was 0 and the “Pre-emerge Herbicidal Activity DIGSA” value ([6]; 162 g ai/ha) was 0. For the same compound, the “Pre-emerge Herbicidal Activity IPOHE” value ([7]; 40.5 g ai/ha) was 0, the “Pre-emerge Herbicidal Activity IPOHE” value ([7]; 162 g ai/ha) was 20 and the “Pre-emerge Herbicidal Activity ABUTH” value ([8]; 40.5 g ai/ha) was 70. For the same compound, the “Pre-emerge Herbicidal Activity ABUTH” value ([8]; 162 g ai/ha) was 100, the “Pre-emerge Herbicidal Activity CASOB” value ([9]; 40.5 g ai/ha) was 0 and the “Pre-emerge Herbicidal Activity CASOB” value ([9]; 162 g ai/ha) was 10. The “Pre-emerge Herbicidal Activity SORHA” value ([10]; 40.5 g ai/ha) was 0, the “Pre-emerge Herbicidal Activity SORHA” value ([10]; 162 g ai/ha) was 0 and the SETVI phytotoxicity rating ([11]; 40.5 g ai/ha) was 0. The SETVI phytotoxicity rating ([11]; 162 g ai/ha) was 0, the AMARE phytotoxicity rating ([12]; 40.5 g ai/ha) was 100 and the AMARE phytotoxicity rating ([12]; 162 g ai/ha) was 100. It also gave a CHEAL phytotoxicity rating ([13]; 40.5 g ai/ha) of 100, a CHEAL phytotoxicity rating ([13]; 162 g ai/ha) of 100 and an ECHCG phytotoxicity rating ([14]; 40.5 g ai/ha) of 0. It also gave an ECHCG phytotoxicity rating ([14]; 162 g ai/ha) of 10, a DIGSA phytotoxicity rating ([15]; 40.5 g ai/ha) of 0 and a DIGSA phytotoxicity rating ([15]; 162 g ai/ha) of 0. It also gave an IPOHE phytotoxicity rating ([16]; 40.5 g ai/ha) of 60, an IPOHE phytotoxicity rating ([16]; 162 g ai/ha) of 100 and an ABUTH phytotoxicity rating ([17]; 40.5 g ai/ha) of 85. It also gave an ABUTH phytotoxicity rating ([17]; 162 g ai/ha) of 100, a CASOB phytotoxicity rating ([18]; 40.5 g ai/ha) of 40 and a CASOB phytotoxicity rating ([18]; 162 g ai/ha) of 60. For the same compound, the SORHA phytotoxicity rating ([19]; 40.5 g ai/ha) was 0, the SORHA phytotoxicity rating ([19]; 162 g ai/ha) was 0 and the “Pre-emerge Herbicidal Activity CORN” value ([20]; 40.5 g ai/ha) was 0. For the same compound, the “Pre-emerge Herbicidal Activity CORN” value ([20]; 162 g ai/ha) was 0, the “Pre-emerge Herbicidal Activity RICE” value ([21]; 40.5 g ai/ha) was 0 and the “Pre-emerge Herbicidal Activity RICE” value ([21]; 162 g ai/ha) was 0. For the same compound, the “Pre-emerge Herbicidal Activity AMARE” value ([22]; 40.5 g ai/ha) was 95 and the “Pre-emerge Herbicidal Activity AMARE” value ([22]; 162 g ai/ha) was 90.

— patent publication US6355799B1, “Substituted benzene compounds, process for their preparation, and herbicidal and defoliant compositions containing them” (ISK Americas Incorporated, priority 1997, dated 2002)
